Measured values as given in PubChem BioAssay (NCI).
Where “and” joins values, the source holds several entries; their conditions need not be identical. Equal values may be shown once.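 Values below derive from 48-hour exposures of cells grown in 96-well plates, with endpoints linearly interpolated between the two concentrations bracketing the appropriate inhibition level. GI50: concentration for 50% inhibition of growth. TGI marks complete inhibition of growth.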

Key:
Test in all cases: NCI-60 cell line screen, 48 h
DU-145 prostate = tested on: DU-145 prostate
PC-3 prostate = tested on: PC-3 prostate
CAKI-1 renal = tested on: CAKI-1 renal
U251 CNS = tested on: U251 CNS
SK-OV-3 ovarian = tested on: SK-OV-3 ovarian
RXF 393 renal = tested on: RXF 393 renal
MALME-3M melanoma = tested on: MALME-3M melanoma
SR leukemia = tested on: SR leukemia

Structure (SMILES)	GI50 (DU-145 prostate)	TGI (DU-145 prostate)	GI50 (PC-3 prostate)	TGI (PC-3 prostate)	GI50 (CAKI-1 renal)	TGI (CAKI-1 renal)	GI50 (U251 CNS)	TGI (U251 CNS)	GI50 (SK-OV-3 ovarian)	TGI (SK-OV-3 ovarian)	GI50 (RXF 393 renal)	TGI (RXF 393 renal)	GI50 (MALME-3M melanoma)	TGI (MALME-3M melanoma)	GI50 (SR leukemia)	TGI (SR leukemia)
Cc1oncc1C(=O)Nc1ccc(C(F)(F)F)cc1	56100 nM	> 100 µM	13900 nM	> 100 µM	33300 nM	> 100 µM	14700 nM	> 100 µM	> 100000 nM	> 100 µM	23900 nM	> 100 µM	20.5 µM	> 100 µM	–	–
O=C(O[C@H]1CN[C@H](C#Cc2cc3ncnc(Nc4ccc(Cc5ccccc5)cc4)c3s2)C1)N1CCOCC1	4000 nM	11 µM	8560 nM	> 25 µM	2080 nM	> 24.1 µM	5520 nM	20.3 µM	33 nM	> 25 µM	1350 nM	7.11 µM	4.71 µM	> 20.3 µM	11200 nM	> 25 µM
Nc1ccn(C2OC(CO[P+](=O)OC3C(CO[P+](=O)OC4C(CO[P+](=O)OC5C(CO[P+](=O)OC6C(CO[P+](=O)OC7C(CO[P+](=O)OC8C(CO[P+](=O)OC9C(CO[P+](=O)OC%10C(CO[P+](=O)OC%11C(CO)OC(n%12ccc(N)nc%12=O)C%11(F)F)OC(n%11ccc(N)nc%11=O)C%10(F)F)OC(n%10ccc(N)nc%10=O)C9(F)F)OC(n9ccc(N)nc9=O)C8(F)F)OC(n8ccc(N)nc8=O)C7(F)F)OC(n7ccc(N)nc7=O)C6(F)F)OC(n6ccc(N)nc6=O)C5(F)F)OC(n5ccc(N)nc5=O)C4(F)F)OC(n4ccc(N)nc4=O)C3(F)F)C(O)C2(F)F)c(=O)n1 (centres undefined)	23.9 nM	0.13 µM	80500 nM	> 100 µM	–	–	–	> 100 µM	255 nM	> 100 µM	61.8 nM	> 100 µM	50.9 µM	> 100 µM	–	0.507 µM
NC(=O)c1cccc(N)c1	> 100000 nM	> 100 µM	> 100000 nM	> 100 µM	> 100000 nM	> 100 µM	> 100000 nM	> 100 µM	> 100000 nM	> 100 µM	> 100000 nM	> 100 µM	> 100 µM	> 100 µM	> 100000 nM	> 100 µM
COC(=O)c1c2c(c[n+]([O-])c1C)C(=O)C(NCc1ccccc1)=CC2=O	1050 nM	2.25 µM	274 nM	1.91 µM	1270 nM	3.18 µM	510 nM	1.89 µM	1980 nM	4.79 µM	1050 nM	2.48 µM	0.127 µM	0.294 µM	1290 nM	> 100 µM
O=C1OCC2=C1C(c1ccccc1)c1cc3c(cc1N2CCO)CCC3 (centres undefined)	77.8 nM	0.464 µM	98.6 nM	> 25 µM	86.8 nM	> 25 µM	116 nM	> 25 µM	97 nM	8.73 µM	59.7 nM	0.138 µM	0.0609 µM	> 25 µM	76.2 nM	> 25 µM
Nc1ccccc1C#Cc1ccccc1C#Cc1ccccc1N	11300 nM	28.6 µM	5310 nM	23.3 µM	4410 nM	18.5 µM	4500 nM	17.3 µM	15100 nM	35.5 µM	9740 nM	32 µM	10.3 µM	24.1 µM	–	–
COc1cccc(C2=NN(C(C)=O)C(c3cc(OC)c(OC)c(OC)c3)C2)c1 (centres undefined)	2870 nM	> 100 µM	1710 nM	> 100 µM	2790 nM	> 100 µM	3370 nM	> 100 µM	3040 nM	> 47.7 µM	4020 nM	> 100 µM	2.47 µM	> 100 µM	437 nM	> 100 µM
O=C(/C=C/c1ccccc1O)c1ccccc1	5860 nM	18.7 µM	7130 nM	41.6 µM	4260 nM	20.8 µM	4180 nM	14.4 µM	31500 nM	> 100 µM	10300 nM	23.4 µM	5.5 µM	20.4 µM	1830 nM	5.8 µM
Clc1ccc(-c2nc(-c3c[nH]c4ncccc34)cs2)cc1	> 100000 nM	> 100 µM	> 100000 nM	> 100 µM	> 100000 nM	> 100 µM	> 100000 nM	> 100 µM	> 100000 nM	> 100 µM	> 100000 nM	> 100 µM	> 100 µM	> 100 µM	–	–
CC(/C=C/C=C/C=C/C=C/C=C/C(O)=C1/C(=O)C(CCC(=O)O)N(C)C1=O)=C\C(C)C(OC1CC(O)C(O)C(C)O1)C(C)C (centres undefined)	–	12.4 µM	–	16.6 µM	–	12.6 µM	–	11.7 µM	–	–	–	11.2 µM	–	8.4 µM	–	40.2 µM
COC(=O)C1=C2C3=C(C(=O)c4ccccc4C3=O)N(Cc3ccccc3)C2(OC(C)=O)C=CC1=O (centres undefined)	14800 nM	61.9 µM	2360 nM	19.2 µM	1890 nM	13.2 µM	9860 nM	39.4 µM	27600 nM	> 100 µM	–	–	10.8 µM	26.5 µM	–	–
Clc1ccc(N/N=C/c2ccccn2)nc1	445 nM	> 100 µM	578 nM	> 100 µM	341 nM	> 22.7 µM	459 nM	> 100 µM	508 nM	> 100 µM	492 nM	15.7 µM	–	–	339 nM	> 52.8 µM
O=c1oc2c(Br)c(O)c(Br)cc2c2ccccc12	–	70.8 µM	–	50.4 µM	–	31.1 µM	–	87.8 µM	–	–	–	> 100 µM	–	64.8 µM	–	71.6 µM
Oc1c(Cl)cc(C(c2cc(Cl)c(O)c(Cl)c2)C(c2cc(Cl)c(O)c(Cl)c2)c2cc(Cl)c(O)c(Cl)c2)cc1Cl	3630 nM	14.1 µM	–	13.8 µM	3450 nM	13.6 µM	3030 nM	10.7 µM	11300 nM	23.4 µM	1340 nM	4.11 µM	5.88 µM	30.4 µM	–	–
COc1ccc(Nc2nc(NCc3ccccc3)c3ccccc3n2)cc1	8750 nM	21.9 µM	2870 nM	12.6 µM	3690 nM	14 µM	2170 nM	3.97 µM	10400 nM	22.1 µM	–	–	1.92 µM	3.69 µM	2190 nM	6.01 µM
O=C(O)c1ccc([N+](=O)[O-])c(P(=O)(O)O)c1	–	> 100 µM	–	> 100 µM	–	> 100 µM	–	> 100 µM	–	> 100 µM	–	> 100 µM	–	–	–	> 100 µM
CCCCN(CCCC)c1cc(C(=O)CCCCCN)c2ccccc2n1	1890 nM	3.41 µM	2560 nM	6.07 µM	1860 nM	4.38 µM	1770 nM	3.23 µM	1760 nM	3.16 µM	1530 nM	2.89 µM	2.16 µM	4.16 µM	–	–
O=S(=O)(c1ccc2c(c1)C(=NO)c1cc(S(=O)(=O)N3CCCCC3)ccc1-2)N1CCCCC1	206 nM and 154 nM	0.397 µM and 0.296 µM	263 nM and 171 nM	0.812 µM and 0.381 µM	427 nM and 147 nM	> 1 µM and 0.282 µM	> 1000 nM and 178 nM	> 1 µM and 0.344 µM	187 nM and 162 nM	0.362 µM and 0.311 µM	> 1000 nM and 204 nM	> 1 µM and 0.358 µM	> 1 µM and 0.174 µM	> 1 µM and 0.312 µM	–	–
COc1cc(-c2nn(C)nc2-c2cc3ccccc3s2)cc(OC)c1OC	263 nM	> 100 µM	77.9 nM	> 100 µM	3770 nM	> 100 µM	78.3 nM	30.5 µM	311 nM	> 100 µM	286 nM	46.9 µM	16.9 µM	> 100 µM	–	–
CCOC(=O)CC(=O)N(c1ccc(OC)cc1)C(C(=O)OC)c1ccccc1 (centres undefined)	–	> 100 µM	–	> 100 µM	–	> 100 µM	–	–	–	–	–	–	–	–	–	> 100 µM
C=CC[Se]C(=O)c1ccccc1OC(C)=O	3080 nM	11.6 µM	717 nM	2.48 µM	2350 nM	5.73 µM	–	–	1200 nM	2.54 µM	–	–	1.66 µM	3.38 µM	2410 nM	19.2 µM
Cc1c(NC(=O)CCCl)c(=O)oc2c(C)c3occc(=O)c3cc12	–	> 100 µM	–	–	–	> 100 µM	–	> 100 µM	–	> 100 µM	–	> 100 µM	–	> 100 µM	–	> 100 µM
COc1ccc(S(=O)(=O)Nc2cc(/C=C\c3cc(OC)c(OC)c(OC)c3)cc(OC)c2OC)cc1OC	841 nM	> 100 µM	374 nM	> 100 µM	813 nM	> 100 µM	681 nM	> 100 µM	11400 nM	> 100 µM	683 nM	4.55 µM	–	–	704 nM	> 100 µM
COC(=O)C1C2CC3C(OC(=O)C31)C2I (centres undefined)	–	–	–	–	–	> 100 µM	–	> 100 µM	–	> 100 µM	–	> 10 µM	–	> 100 µM	–	> 100 µM
